{"source": "paper PMC7343696", "about": "(EJNMMI Research, 2020)", "key": {"[1]": {"set-up": "method as in ref (3) (a number printed in a supplementary file, which may have a reference list of its own: not looked up in the article's list)", "details": "mice, 24 mg/kg i.v., fifteen min after administration; ref (3); cited from earlier work"}, "platelet function": {"system": "platelet function", "details": "plasma concentrations that will inhibit SERT; cited from earlier work"}, "[2]": {"system": "PC12 pheochromocytoma xenografts", "test": "[125I]MIBG tumor uptake in mice bearing PC12 pheochromocytoma xenografts", "assay_type": "in vivo", "details": "for Effect on tumor MIBG uptake in PC12 pheochromocytoma xenografts (in words): data not shown", "method": "(§1) Female athymic BALB/c nu/nu mice were bred in the animal facility of the Netherlands Cancer Institute. Experiments were performed in accordance with the national regulations for animal experimentations and approved by the local animal welfare committee. Subcutaneous (s.c.) neuroblastoma tumors consisted of either first passages of intrasplenic-induced SK-N-SH xenografts or later passages from s.c. propagation of the xenograft. […] The tumor volume doubling time was on average 5 days. The toxicity of each monoamine transporter inhibitor was assessed in 2 to 5 non-tumor-bearing nude mice by 1 h careful observation following intraperitoneal (IP) injection of the monoamine transporter inhibitor. Applied inhibitor doses were based on earlier studies (summarized in Electronic Supplementary Material: Table I) and varied from 2 to 50 mg/kg. Provided that no toxicity was observed, plasma of these animals was subsequently analyzed in the ex vivo bioassay described below. […]. First, mice were treated IP with either a monoamine transporter inhibitor or sodium chloride (control). Thirty minutes later, they received an injection in the tail vein with 1 μg MIBG spiked with 4.0–8.0 kBq [^125I]MIBG. One hour after administration of the radiopharmaceutical, the animals were bled from the carotid artery under ether anesthesia and dissected. Tumors and tissues of interest were blotted to remove adhering blood, weighted, and gamma counted. The [^125I]MIBG tissue levels were expressed as the percentage of the injected radioactivity dose per gram tissue. Mice bearing PC12 pheochromocytoma xenografts induced by direct s.c. injections of PC12 cells were used in similar uptake and inhibition experiments."}, "[3]": {"details": "cited from earlier work"}, "[4]": {"system": "tryptophan or 5-hydroxytryptophan induced symptoms", "details": "mice, assay type I, cited from earlier work"}, "[5]": {"system": "SK-N-SH neuroblastoma xenografts", "test": "[125I]MIBG tumor uptake in mice bearing SK-N-SH neuroblastoma xenografts", "assay_type": "in vivo, BALB/c nu/nu mice", "details": "for Effect on [125I]MIBG accumulation in neuroblastoma xenografts (in words): inhibitor IP 30 min before [125I]MIBG, tissues 1 h after, doses as in Fig. 6", "method": "as §1"}, "[6]": {"biological_target": "T1, human SK-N-SH neuroblastoma cells (uptake via NET) (Homo sapiens, UniProt P23975)", "T1 construct": "host or cells: SK-N-SH human neuroblastoma cells", "T1 sequence (P23975 whole entry)": "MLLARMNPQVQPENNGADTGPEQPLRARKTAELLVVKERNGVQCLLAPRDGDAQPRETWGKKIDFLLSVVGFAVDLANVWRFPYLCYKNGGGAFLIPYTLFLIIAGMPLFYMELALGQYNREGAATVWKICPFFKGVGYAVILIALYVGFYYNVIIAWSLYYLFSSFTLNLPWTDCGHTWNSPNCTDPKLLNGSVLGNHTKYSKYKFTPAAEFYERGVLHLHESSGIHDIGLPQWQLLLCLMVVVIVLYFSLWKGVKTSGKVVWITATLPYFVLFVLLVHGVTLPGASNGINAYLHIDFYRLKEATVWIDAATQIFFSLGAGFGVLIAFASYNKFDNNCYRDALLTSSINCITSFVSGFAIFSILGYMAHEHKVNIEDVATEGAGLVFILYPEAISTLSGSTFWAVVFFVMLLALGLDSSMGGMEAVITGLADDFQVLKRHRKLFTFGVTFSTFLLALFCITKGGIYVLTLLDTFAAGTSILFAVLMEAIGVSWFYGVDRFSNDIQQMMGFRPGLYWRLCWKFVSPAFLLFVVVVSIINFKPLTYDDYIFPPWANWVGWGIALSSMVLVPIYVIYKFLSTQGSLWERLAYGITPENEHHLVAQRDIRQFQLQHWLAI", "test": "[125I]MIBG uptake inhibition in cultured SK-N-SH neuroblastoma cells", "assay_type": "cell-based"}, "[7]": {"biological_target": "T2, human platelets (uptake via SERT) (Homo sapiens, UniProt P31645)", "T2 construct": "endogenous in cells; host or cells: human platelets in platelet-rich plasma from patients with polycythemia vera or secondary polycythemia", "T2 sequence (P31645 whole entry)": "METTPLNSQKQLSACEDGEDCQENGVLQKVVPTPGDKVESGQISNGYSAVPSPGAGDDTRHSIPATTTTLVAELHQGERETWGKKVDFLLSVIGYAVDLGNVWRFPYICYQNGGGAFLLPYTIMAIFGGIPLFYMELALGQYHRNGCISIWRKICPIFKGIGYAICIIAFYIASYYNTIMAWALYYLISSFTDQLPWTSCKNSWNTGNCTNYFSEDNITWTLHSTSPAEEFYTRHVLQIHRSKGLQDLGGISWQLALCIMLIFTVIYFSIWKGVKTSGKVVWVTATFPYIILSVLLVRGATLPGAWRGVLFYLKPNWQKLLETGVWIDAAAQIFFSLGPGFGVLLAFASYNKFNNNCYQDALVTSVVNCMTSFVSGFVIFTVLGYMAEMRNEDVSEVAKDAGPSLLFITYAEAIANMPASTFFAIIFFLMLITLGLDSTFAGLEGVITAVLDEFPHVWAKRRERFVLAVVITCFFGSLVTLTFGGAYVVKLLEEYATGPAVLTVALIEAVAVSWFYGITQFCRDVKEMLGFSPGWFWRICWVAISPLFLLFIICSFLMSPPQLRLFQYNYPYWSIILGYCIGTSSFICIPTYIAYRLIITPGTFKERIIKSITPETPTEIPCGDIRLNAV", "test": "[125I]MIBG uptake inhibition in isolated human platelets", "assay_type": "cell-based"}, "[8]": {"system": "amphetamine-stimulated locomotor activity", "set-up": "method as in ref (8) (a number printed in a supplementary file, which may have a reference list of its own: not looked up in the article's list)", "details": "mice, i.p., assay type IV; ref (8); cited from earlier work"}, "[9]": {"biological_target": "T2, human platelets (uptake via SERT)", "test": "[3H]serotonin uptake inhibition in isolated human platelets", "assay_type": "cell-based", "details": "15 min"}, "NET": {"biological_target": "T3, NET (Homo sapiens, UniProt P23975)", "T3 construct": "host or cells: HEK293 (ATCC CRL-3216), transient transfection", "T3 sequence (P23975 whole entry)": "as the sequence (P23975 whole entry) above", "test": "[125I]MIBG uptake and its inhibition in NET-transfected HEK293 cells (HEK-NET)", "assay_type": "cell-based"}, "SERT [10]": {"biological_target": "T4, SERT (Homo sapiens, UniProt P31645)", "T4 construct": "host or cells: HEK293 (ATCC CRL-3216), transient transfection", "T4 sequence (P31645 whole entry)": "as the sequence (P31645 whole entry) above", "assay_type": "cell-based"}, "SERT [11]": {"system": "SERT", "details": "cited from earlier work"}, "[12]": {"details": "[125I]MIBG as substrate, HEK-NET"}, "[13]": {"details": "[125I]MIBG as substrate, HEK-SERT"}}, "note": "Entries after “also recorded” stand apart in the source; their conditions may differ. Structures can show the parent of a compound that is named as a salt. Where two headings read alike, the source gives them in different places. Marks after values point to notes of the source that are not given here.", "data": [{"smiles": "CN(C)CCCC1(c2ccc(F)cc2)OCc2cc(C#N)ccc21", "note": "(centres unmarked) [Citalopram, citalopram-HBr]", "values": [{"measurement": "Plasma level", "setting": "[1]", "value": 6, "unit": "µM"}, {"measurement": "Effect on platelet function (in words)", "setting": "platelet function", "value": "no effect on platelet function"}, {"measurement": "Effect on tumor MIBG uptake in PC12 pheochromocytoma xenografts (in words)", "setting": "[2]", "value": "no significant difference"}, {"measurement": "Plasma half-life", "setting": "[3]; after oral ingestion", "value": "33 to 54", "unit": "h"}, {"measurement": "Time to maximum plasma drug levels", "setting": "[3]; after oral ingestion", "value": "≤ 4", "unit": "h"}, {"measurement": "Absorption after oral ingestion (in words)", "setting": "[3]", "value": "completely absorbed"}, {"measurement": "50 % effective dose", "setting": "[4]; i.p., ref (1)", "value": "0.9^c mg/kg"}, {"measurement": "50 % effective dose", "setting": "[4]; oral, ref (2)", "value": "1.2^c mg/kg"}, {"measurement": "Effect on [125I]MIBG accumulation in neuroblastoma xenografts (in words)", "setting": "[5]", "value": "not significantly affected"}]}, {"smiles": "CN[C@H]1CC[C@@H](c2ccc(Cl)c(Cl)c2)c2ccccc21", "note": "[Sertraline, sertraline-HCl]", "values": [{"measurement": "Effect on tumor MIBG uptake in PC12 pheochromocytoma xenografts (in words)", "setting": "[2]", "value": "no significant difference"}, {"measurement": "Fraction absorbed after oral ingestion", "setting": "[3]", "value": 44, "unit": "%"}, {"measurement": "50 % effective dose", "setting": "[4]; i.p., ref (1)", "value": "1.5^c mg/kg"}, {"measurement": "50 % effective dose", "setting": "[4]; oral, ref (2)", "value": "1.0^c mg/kg"}, {"measurement": "Effect on [125I]MIBG accumulation in neuroblastoma xenografts (in words)", "setting": "[5]", "value": "not significantly affected"}]}, {"smiles": "CN(C)CCCN1c2ccccc2CCc2ccccc21", "note": "[Imipramine, imipramine-HCl]", "values": [{"measurement": "Effect on MIBG uptake in neuroblastoma cells (in words)", "setting": "[6]", "value": "profound inhibitory effect"}, {"measurement": "Inhibition of [125I]MIBG uptake in human platelets (in words)", "setting": "[7]", "value": "able to inhibit"}]}, {"smiles": "NCCC(Oc1ccc(C(F)(F)F)cc1)c1ccccc1", "note": "(centres unmarked) [Norfluoxetine, norfluoxetine-HCl]", "values": [{"measurement": "IC50", "setting": "[6]; 10^−8 M substrate, 37 °C, 4 h, read-out: IC50 of uptake inhibition, SK-N-SH, [125I]MIBG", "value": 2760, "unit": "nM"}, {"measurement": "Elimination half-life", "setting": "[3]", "value": "170 to 360", "unit": "h"}]}, {"smiles": "CNCCC(Oc1ccc(C(F)(F)F)cc1)c1ccccc1", "note": "(centres unmarked) [Fluoxetine, fluoxetine-HCl]", "values": [{"measurement": "Elimination half-life", "setting": "[3]", "value": "24 to 96", "unit": "h"}]}, {"smiles": "CNCCCN1c2ccccc2CCc2ccccc21", "note": "[Desipramine, desipramine-HCl]", "values": [{"measurement": "Effect on tumor MIBG uptake in PC12 pheochromocytoma xenografts (in words)", "setting": "[2]", "value": "same reduction of MIBG uptake as seen in SK-N-SH neuroblastoma xenografts"}, {"measurement": "Reported effective dose (cell not marked as 50 % effective dose)", "setting": "[8]", "value": "5 to 36", "unit": "mg/kg"}, {"measurement": "50 % effective dose", "setting": "[4]; i.p., ref (1)", "value": ">39^c mg/kg"}, {"measurement": "50 % effective dose", "setting": "[4]; oral, ref (2, 4, 7)", "value": "20 – 320^c mg/kg"}, {"measurement": "Decrease of [125I]MIBG accumulation in neuroblastoma xenografts", "setting": "[5]; 20 mg/kg IP 30 min before [125I]MIBG", "value": 60, "unit": "%"}, {"measurement": "Effect on [125I]MIBG accumulation in neuroblastoma xenografts (in words)", "setting": "[5]", "value": "profoundly decreased"}]}, {"smiles": "Fc1ccc([C@@H]2CCNC[C@H]2COc2ccc3c(c2)OCO3)cc1", "note": "[Paroxetine, paroxetine-HCl]", "values": [{"measurement": "Bioavailability", "setting": "[3]; extensive first-pass metabolism", "value": "approximately 50%"}, {"measurement": "50 % effective dose", "setting": "[4]; i.p., ref (1)", "value": "0.2^c mg/kg"}, {"measurement": "Effect on [125I]MIBG accumulation in neuroblastoma xenografts (in words)", "setting": "[5]", "value": "no effect; also recorded: not significantly affected"}]}, {"smiles": "CC(N)C(=O)OC(C)(C)Cc1ccc(Cl)cc1", "note": "(centres unmarked) [Alaproclate, alaproclate-HCl]", "values": [{"measurement": "IC50", "setting": "[6]", "value": 43400, "unit": "nM"}, {"measurement": "Selectivity factor, IC50 ratio", "setting": "[6]", "value": 1158}, {"measurement": "IC50", "setting": "[7]; 10^−8 M substrate, 37 °C, 4 h", "value": 38, "unit": "nM"}, {"measurement": "IC50", "setting": "[9]; 10^−8 M substrate, 37 °C", "value": 516, "unit": "nM"}]}, {"smiles": "COCCCC/C(=N\\OCCN)c1ccc(C(F)(F)F)cc1", "note": "[Fluvoxamine, fluvoxamine-maleate]", "values": [{"measurement": "Inhibition of [125I]MIBG uptake in HEK-NET cells (in words)", "setting": "NET; 1 h, substrate 10^−6 M", "value": "no significant inhibitory effect at low concentrations"}, {"measurement": "Reduction of pheochromocytoma-associated radioactivity", "setting": "[2]; PC12 xenografts, p < 0.002", "value": 64, "unit": "%"}, {"measurement": "Inhibition of [125I]MIBG uptake in HEK-SERT cells (in words)", "setting": "SERT [10]; 1 h, substrate 10^−6 M", "value": "potently inhibited"}, {"measurement": "Inhibition of [125I]MIBG uptake in human platelets (in words)", "setting": "[7]; co-incubation, 4 h", "value": "effective, inhibitor concentration-dependent inhibition"}, {"measurement": "Inhibition of [3H]serotonin uptake in human platelets (in words)", "setting": "[9]; co-incubation", "value": "effective, inhibitor concentration-dependent inhibition"}, {"measurement": "50 % effective dose", "setting": "[4]; oral, ref (2)", "value": "13^c mg/kg"}, {"measurement": "Effect on [125I]MIBG accumulation in neuroblastoma xenografts (in words)", "setting": "[5]", "value": "no effect; also recorded: not significantly affected"}]}, {"smiles": "N=C(N)NCc1cccc([131I])c1", "note": "[MIBG, meta-iodobenzylguanidine]", "values": [{"measurement": "Nonspecific uptake, share of total uptake", "setting": "NET; NET-transfected cells, substrate concentration 10^−5 M", "value": 33, "unit": "%"}, {"measurement": "Catalytic efficiency (ratio Vmax/Km)", "setting": "NET; [12]", "value": 0.045}, {"measurement": "Vmax", "setting": "NET; [12]", "value": 0.022, "unit": "μmol/mg protein/min"}, {"measurement": "Nonspecific uptake, share of total uptake", "setting": "SERT [10]; SERT-transfected cells, substrate concentration 10^−5 M", "value": 22, "unit": "%"}, {"measurement": "Catalytic efficiency (ratio Vmax/Km)", "setting": "SERT [10]; [13]", "value": 0.0077}, {"measurement": "Vmax", "setting": "SERT [10]; [13]", "value": 0.074, "unit": "μmol/mg protein/min"}, {"measurement": "Total uptake (percentage of added radioactivity)", "setting": "[7]; control platelet samples without SSRIs, MIBG, n = 17", "value": "23.6 ± 3.6", "unit": "%"}, {"measurement": "Nonspecific uptake (percentage of controls)", "setting": "[7]; platelets, MIBG", "value": "12.3 ± 2.5", "unit": "%"}]}, {"smiles": "CNCCCC1(c2ccc(F)cc2)OCc2cc(C#N)ccc21", "note": "(centres unmarked) [desmethylcitalopram]", "values": [{"measurement": "Potency and selectivity in inhibiting SERT in vitro compared with citalopram (in words)", "setting": "SERT [11]", "value": "only slightly less potent and selective than citalopram"}]}, {"smiles": "N=C(N)NCc1cccc(I)c1", "note": "[MIBG, meta-iodobenzylguanidine]", "values": [{"measurement": "Km", "setting": "NET; [125I]MIBG as substrate, HEK-NET, 1 h incubation", "value": 0.49, "unit": "µM"}, {"measurement": "Km", "setting": "SERT [10]; [125I]MIBG as substrate, HEK-SERT, 1 h incubation", "value": 9.7, "unit": "µM"}]}]}
